Source: the supplement of paper PMC11208160

Assay: recombinant UMI read abundance after kanamycin selection (control-corrected) (log10(CPM+1)); higher = more efficient recombination; extreme values may be limits of the assay; sequences stand for … in AGTGCAGAGAAAATCGGCCAGTTTTCTCTGCCTGCAGTCCGCATGCCGTGGGACCCCTTGGGTTCTAACCTGTTGCCTAGATTTATGCAGCGGACTGCCTTTCTCCCAAAGTGATAAACCGG…AGGTTGGTTTCACT; site = the 11-nt donor
In short: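 For the IS621 bridge recombinase, a pooled Escherichia coli screen tested donor and donor-binding-loop pairs. Cells received the pair library together with a target plasmid encoding a fixed target and T7-inducible recombinase, then went onto IPTG (0.07 mM) plus kanamycin or unselected plates in duplicate. After PCR across the donor–target junction and sequencing, recombinant UMI counts were normalized to CPM, averaged, and scaled by control-derived factors. Each value is given as log10(CPM+1).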
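Further: IS621 bridge recombinase in Escherichia coli cells against a fixed T5 target plasmid.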

| Sequence | recombinant UMI read abundance (log10) |
| --- | --- |
| TTAGGTTCATGGACCGGTTTTCCCGGTAATCCGTATTTGGC (site TTAGGTTCTGC) | 2.53 |
| TTAGTATCATGGACCGGTTTTCCCGGTAATCCGTATTTGAG (site CTAGTATCTGT) | 0 |
| TTAGTATCATGGACCGGTTTTCCCGGTAATCCGTATTTGAG (site TTAGTATCTCT) | 1.66 |
| TTAGTCTCATGGACCGGTTTTCCCGGTAATCCGTATTTGAC (site CTAGTATCTGT) | 0 |
| TTAGTCTCATGGACCGGTTTTCCCGGTAATCCGTATTTGAC (site TTAGTCTCTGT) | 3.02 |
| TTATCTGCATGGACCGGTTTTCCCGGTAATCCGTATTTGTG (site TTAACTGCTCA) | 0.00525 |
| TTATCTGCATGGACCGGTTTTCCCGGTAATCCGTATTTGTG (site TTACCTGCTCA) | 0.0587 |
| TTATCTGCATGGACCGGTTTTCCCGGTAATCCGTATTTGTG (site TTAGCTGCTCA) | 0.00464 |
| TTATCTGCATGGACCGGTTTTCCCGGTAATCCGTATTTGTG (site TTATCTGCTCA) | 1.73 |
| TTATGGTCATGGACCGGTTTTCCCGGTAATCCGTATTTGGC (site TTATGGTCTGC) | 1.88 |
| TTATGTACATGGACCGGTTTTCCCGGTAATCCGTATTTGGG (site TTATGTACTCC) | 0.0157 |
| TTATTGTCATGGACCGGTTTTCCCGGTAATCCGTATTTGCA (site TTATTGTCTTG) | 2.35 |
| TTCAAGTCATGGACCGGTTTTCCCGGTAATCCGTATTTGTA (site TTCAAGTCTTA) | 0.621 |
| TTCACGGCATGGACCGGTTTTCCCGGTAATCCGTATTTGTC (site TTCACGGCTGA) | 0.624 |
| TTCAGTCCATGGACCGGTTTTCCCGGTAATCCGTATTTGAT (site TTCAGTCCTAT) | 0 |
| TTCATTACATGGACCGGTTTTCCCGGTAATCCGTATTTGAT (site TTCATTACTAT) | 0 |
| TTCCAAGCATGGACCGGTTTTCCCGGTAATCCGTATTTGAG (site ATCCAAGCTCT) | 0 |
| TTCCAAGCATGGACCGGTTTTCCCGGTAATCCGTATTTGAG (site CTCCAAGCTCT) | 0.00912 |
| TTCCAAGCATGGACCGGTTTTCCCGGTAATCCGTATTTGAG (site GTCCAAGCTCT) | 0.0126 |
| TTCCAAGCATGGACCGGTTTTCCCGGTAATCCGTATTTGAG (site TTCCAAGCTCT) | 0.0285 |
| TTCCAGCCATGGACCGGTTTTCCCGGTAATCCGTATTTGTG (site TTCCAGCCTCA) | 0.0201 |
| TTCCCTACATGGACCGGTTTTCCCGGTAATCCGTATTTGAG (site ATCCCTACTCT) | 0 |
| TTCCCTACATGGACCGGTTTTCCCGGTAATCCGTATTTGAG (site CTCCCTACTCT) | 0.0509 |
| TTCCCTACATGGACCGGTTTTCCCGGTAATCCGTATTTGAG (site GTCCCTACTCT) | 0.0155 |
| TTCCCTACATGGACCGGTTTTCCCGGTAATCCGTATTTGAG (site TTCCCTACTCT) | 0.00443 |

| Sequence | recombinant UMI read abundance (log10) |
| --- | --- |
| TTCGACCCATGGACCGGTTTTCCCGGTAATCCGTATTTGAG (site TTCGACCCTCT) | 0.00989 |
| TTCGAGACATGGACCGGTTTTCCCGGTAATCCGTATTTGAC (site TTCGAGACTGT) | 1.53 |
| TTCGAGGCATGGACCGGTTTTCCCGGTAATCCGTATTTGAT (site TTCGAGGCTAT) | 0.482 |
| TTCGCACCATGGACCGGTTTTCCCGGTAATCCGTATTTGGT (site TTCGCACCTAC) | 0.00499 |
| TTCGCTGCATGGACCGGTTTTCCCGGTAATCCGTATTTGTA (site TTCGCTGCTTA) | 0.369 |
| TTCTACGCATGGACCGGTTTTCCCGGTAATCCGTATTTGTT (site TTCTACGCTAA) | 0.603 |
| TTCTAGGCATGGACCGGTTTTCCCGGTAATCCGTATTTGCG (site TTCTAGGCTCG) | 0.0116 |
| TTCTTCACATGGACCGGTTTTCCCGGTAATCCGTATTTGTC (site TTCTTCACTGA) | 0 |
| TTGAACGCATGGACCGGTTTTCCCGGTAATCCGTATTTGAC (site TTGAACGCTGT) | 0.899 |
| TTGACTACATGGACCGGTTTTCCCGGTAATCCGTATTTGCT (site TTGACTACTAG) | 1.09 |
| TTGATTACATGGACCGGTTTTCCCGGTAATCCGTATTTGGC (site TTGATTACTGC) | 0 |
| TTGATTCCATGGACCGGTTTTCCCGGTAATCCGTATTTGAC (site TTGATTCCTGT) | 0.35 |
| TTGCAAGCATGGACCGGTTTTCCCGGTAATCCGTATTTGCT (site TTGCAAGCTAG) | 0 |
| TTGCTACCATGGACCGGTTTTCCCGGTAATCCGTATTTGCT (site ATGCTACCTAG) | 0 |
| TTGCTACCATGGACCGGTTTTCCCGGTAATCCGTATTTGCT (site CTGCTACCTAG) | 0.00337 |
| TTGCTACCATGGACCGGTTTTCCCGGTAATCCGTATTTGCT (site GTGCTACCTAG) | 0 |
| TTGCTACCATGGACCGGTTTTCCCGGTAATCCGTATTTGCT (site TTGCTACCTAG) | 0 |
| TTGGCAACATGGACCGGTTTTCCCGGTAATCCGTATTTGAT (site TTGGCAACTAT) | 0.238 |
| TTGGCGCCATGGACCGGTTTTCCCGGTAATCCGTATTTGAG (site TTGGCGCCTCT) | 0.00946 |
| TTGGTAACATGGACCGGTTTTCCCGGTAATCCGTATTTGAC (site TTGGTAACTGT) | 2.33 |
| TTGGTATCATGGACCGGTTTTCCCGGTAATCCGTATTTGTG (site TTGGTATCTCA) | 1.82 |
| TTGGTGGCATGGACCGGTTTTCCCGGTAATCCGTATTTGTC (site TTGGTGGCTGA) | 1.5 |
| TTGTACGCATGGACCGGTTTTCCCGGTAATCCGTATTTGCA (site TTGTACGCTTG) | 1.8 |
| TTGTAGGCATGGACCGGTTTTCCCGGTAATCCGTATTTGGC (site ATGTAGGCTGC) | 0 |
| TTGTAGGCATGGACCGGTTTTCCCGGTAATCCGTATTTGGC (site CTGTAGGCTGC) | 1.59 |

| Sequence | recombinant UMI read abundance (log10) |
| --- | --- |
| TTGTAGGCATGGACCGGTTTTCCCGGTAATCCGTATTTGGC (site GTGTAGGCTGC) | 0 |
| TTGTAGGCATGGACCGGTTTTCCCGGTAATCCGTATTTGGC (site TTGTAGGCTGC) | 1.76 |
| TTGTCACCATGGACCGGTTTTCCCGGTAATCCGTATTTGTG (site TTGTCACCTCA) | 0.0196 |
| TTGTCGACATGGACCGGTTTTCCCGGTAATCCGTATTTGAC (site TTGTCGACTGT) | 0.302 |
| TTGTGGCCATGGACCGGTTTTCCCGGTAATCCGTATTTGTG (site TTGTGGCCTCA) | 0.0156 |
| TTGTGTACATGGACCGGTTTTCCCGGTAATCCGTATTTGCA (site TTGTGTACTTG) | 0.756 |
| TTTAATCCATGGACCGGTTTTCCCGGTAATCCGTATTTGAT (site TTTAATCCTAT) | 0.157 |
| TTTAGGGCATGGACCGGTTTTCCCGGTAATCCGTATTTGAC (site TTTAGGGCTGT) | 1.53 |
| TTTATTTCATGGACCGGTTTTCCCGGTAATCCGTATTTGAG (site TTTATTTCTCT) | 0.00225 |
| TTTCCGGCATGGACCGGTTTTCCCGGTAATCCGTATTTGTA (site TTTCCGGCTTA) | 0.262 |
| TTTCGATCATGGACCGGTTTTCCCGGTAATCCGTATTTGGT (site TTTCGATCTAC) | 0.00229 |
| TTTCTGCCATGGACCGGTTTTCCCGGTAATCCGTATTTGAA (site TTTCTGCCTTT) | 0.00894 |
| TTTCTGCCATGGACCGGTTTTCCCGGTAATCCGTATTTGCG (site TTTCTGCCTCG) | 0.0153 |
| TTTGAGGCATGGACCGGTTTTCCCGGTAATCCGTATTTGCT (site TTTGAGGCTAG) | 1.31 |
| TTTGAGGCATGGACCGGTTTTCCCGGTAATCCGTATTTGCT (site TTTGCGGCTAG) | 0 |
| TTTGAGGCATGGACCGGTTTTCCCGGTAATCCGTATTTGCT (site TTTGGGGCTAG) | 0.458 |
| TTTGAGGCATGGACCGGTTTTCCCGGTAATCCGTATTTGCT (site TTTGTGGCTAG) | 0.0143 |
| TTTGCGACATGGACCGGTTTTCCCGGTAATCCGTATTTGCT (site TTTGCGACTAG) | 0.529 |
| TTTGCGACATGGACCGGTTTTCCCGGTAATCCGTATTTGCT (site TTTGCGCCTAG) | 0.00919 |
| TTTGCGACATGGACCGGTTTTCCCGGTAATCCGTATTTGCT (site TTTGCGGCTAG) | 0.145 |
| TTTGCGACATGGACCGGTTTTCCCGGTAATCCGTATTTGCT (site TTTGCGTCTAG) | 0 |
| TTTGCGGCATGGACCGGTTTTCCCGGTAATCCGTATTTGGT (site TTTGCGGCTAA) | 0.0207 |
| TTTGCGGCATGGACCGGTTTTCCCGGTAATCCGTATTTGGT (site TTTGCGGCTAC) | 0.0146 |
| TTTGCGGCATGGACCGGTTTTCCCGGTAATCCGTATTTGGT (site TTTGCGGCTAG) | 0.0123 |
| TTTGCGGCATGGACCGGTTTTCCCGGTAATCCGTATTTGGT (site TTTGCGGCTAT) | 0.144 |
